A short description of series [1]: Critical micelle concentration of peptide conjugates (Nile Red). In kind it is physicochemical. Particulars: PBS (5% DMSO), Nile Red 1.0 μM, room temperature overnight; intersection of tangents. Here is the method: The second-order rate constant for the labeling reactions between tetrazine 1 and Cys was determined at 25 °C in PB (30% MeCN, 20 mM, pH 8.0) under second-order conditions using a 6000+ (Quawell) UV-Vis spectrophotometer. The concentrations of cysteine and tetrazine were identical. The specific difference in absorption wavelength (300 nm) between 1 and Cys-1 was measured over time. The second-order rate constant k2 was calculated from the slope of a plot of (1/c – 1/c0) versus time.
5. Competitive labeling reaction with other nucleophilic amino acids
For the competitive labeling experiment, 10 equiv. (2 mM) of N-Fmoc-Lys, N-Fmoc-Arg, Ser, Tyr, and 1.3 equiv. […] The resulting solution was maintained at 25 °C and monitored by LC –MS. […]
Each voTz analogue (1.1 equiv.) was added to a 0.25 mL vial containing solvent. […] The chromatogram peak areas of all relevant Cys -containing species were integrated, and the yiel d was determined using the following equation: Yield (%) = Iproduct/(Istarting + Iproduct + Ioxidation + Iside product) × 100, where Istarting, Iproduct, Ioxidation, and Iside product respectively represent the average ion counts of remaining starting material, product, oxidized starting material and any side product, if present 2. […]
DLS analyses and particle zeta potential values were determined using a Nano ZS ZEN 3690 instrument (Malvern […]

The subject of a further series is B16F10 cells. The series can be described thus: Cellular uptake of RGD-Dox over various time intervals using flow cytometry. The series is classed as cell-based, Mouse. On the procedure:
concentration at the indicated time .
10. In vivo release evaluation of the RGD-FL
Subsequently, the cells were stained […]
laser scanning microscope. […]
μM) for 60 min. […] Blocking studies were performed by
Cells were pre-treated with 18- […]
specific times using a confocal laser scanning microscope.
11. Cell viability assays
After the incubation period, the
Subsequently, the cells were trypsinized and underwent three rinses with PBS.
(In flow cytometry, cells or beads pass a laser one at a time.)

“Also recorded” adds a separate entry of the source.

`COc1cccc2c1C(=O)c1c(O)c3c(c(O)c1C2=O)C[C@@](O)(C(=O)CO)C[C@@H]3O[C@H]1C[C@H](NC(=O)OCc2nnc(CCSC[C@@H]3NC(=O)[C@@H](Cc4ccc(O)cc4)NC(=O)[C@H](CC(=O)O)NC(=O)CNC(=O)[C@H](CCCNC(=N)N)NC3=O)nn2)[C@H](O)[C@H](C)O1` [RGD-Dox]: in series [1], the “critical micellar concentration (CMC)” value was determined as 3.31 µM. In addition, the “cellular uptake of RGD-Dox (flow cytometry)” value in the series with B16F10 cells (0.5 h, Data 1) worked out at 4477; in the series with B16F10 cells (0.5 h, Data 3) it was 4327; in the series on B16F10 cells (1 h, Data 3), 6221; in the series on B16F10 cells (2 h, Data 1), 10116; in the series with B16F10 cells (3 h, Data 3) it was 12247; in the series on B16F10 cells (4 h, Data 3) it was 12044. Further, the “cellular uptake over time (flow cytometry)” value in the series with B16F10 cells (B16F10, 10 μM, 37 °C, 0.5–6 h, 488/610 nm) is “rapid increase observed within the first 2 hours, followed by a plateau and saturation thereafter; also recorded: high cellular uptake after 2 h”.

Source of the values: publication PMC10987521, “An all-in-one tetrazine reagent for cysteine-selective labeling and bioorthogonal activable prodrug construction” (Nature Communications, 2024).
